Laboratory results taken from US11987586B1 (TAKEDA PHARMACEUTICAL COMPANY LIMITED, priority 2022, dated 2024).

What follows are compounds tested against T1, human OX2 receptor (Homo sapiens, UniProt O43614) (assay: Measurement of orexin type 2 receptor agonist activity (calcium fluorescence, Fluo-4, FDSS)). Conditions: 3 uM test compound; CHO cells expressing human OX2 receptor; DMSO = 0%, 10 nM orexin A (human) = 100%.
T1 construct: expressed in transfected cells
T1 sequence (O43614 1-444): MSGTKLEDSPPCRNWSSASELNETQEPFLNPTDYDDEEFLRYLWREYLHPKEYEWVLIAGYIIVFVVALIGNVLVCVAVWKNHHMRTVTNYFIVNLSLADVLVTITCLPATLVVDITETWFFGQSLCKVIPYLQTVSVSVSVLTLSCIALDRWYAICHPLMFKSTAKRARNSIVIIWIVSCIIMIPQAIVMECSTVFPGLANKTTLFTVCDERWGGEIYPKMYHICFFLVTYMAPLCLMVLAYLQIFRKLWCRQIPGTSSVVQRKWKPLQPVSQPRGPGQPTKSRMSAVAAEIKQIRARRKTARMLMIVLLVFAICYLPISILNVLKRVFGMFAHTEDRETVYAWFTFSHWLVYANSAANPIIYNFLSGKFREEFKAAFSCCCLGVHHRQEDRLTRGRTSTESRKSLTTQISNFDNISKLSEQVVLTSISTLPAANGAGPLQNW
Format: cell-based
Summary of the method: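 Agonist activity (%) was normalised to the response to 10 nM final human orexin A (100%) and to the DMSO vehicle (0%). The response was measured as the Fluo-4 calcium signal, read kinetically over 1 min 40 s after compound addition to Fluo-4/probenecid-loaded stable CHO-K1 clones expressing human OX2 (aa 1-444).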
In the case of CCS(=O)(=O)N[C@H]1C[C@H]2CN(c3noc4cccc(-c5c(F)cccc5F)c34)C(=O)N2C1 [Example 1, N-{(6S,7aS)-2-[4-(2,6-Difluorophenyl)-1,2-benzoxazol-3-yl]-3-oxohexahydro-1H-pyrrolo[1,2-c]imidazol-6-yl}ethanesulfonamide], the “OX2R agonist activity (3 uM, %)” value is reported as 104%.
With CS(=O)(=O)N[C@@H]1Cn2c(cn(-c3noc4cccc(-c5c(F)cc(F)cc5F)c34)c2=O)C1(F)F [Example 16, N-{(6R)-7,7-Difluoro-3-oxo-2-[4-(2,4,6-trifluorophenyl)-1,2-benzoxazol-3-yl]-2,5,6,7-tetrahydro-3H-pyrrolo[1,2-c]imidazol-6-yl}methanesulfonamide] the “OX2R agonist activity (3 uM, %)” value was 107%.
In the case of CCS(=O)(=O)N[C@@H]1CN2C(=O)N(c3noc4cccc(-c5c(F)cc(F)cc5F)c34)C[C@@H]2C1(F)F [Example 24, N-{(6R,7aR)-7,7-Difluoro-3-oxo-2-[4-(2,4,6-trifluorophenyl)-1,2-benzoxazol-3-yl]hexahydro-1H-pyrrolo[1,2-c]imidazol-6-yl}ethanesulfonamide], the “OX2R agonist activity (3 uM, %)” value is reported as 104%.
CCS(=O)(=O)N[C@H]1C[C@H]2CN(c3noc4cc(Cl)cc(-c5c(F)cccc5F)c34)C(=O)N2C1 [Example 50, N-{(6S,7aS)-2-[6-Chloro-4-(2,6-difluorophenyl)-1,2-benzoxazol-3-yl]-3-oxohexahydro-1H-pyrrolo[1,2-c]imidazol-6-yl}ethanesulfonamide] was tested, and the “OX2R agonist activity (3 uM, %)” value was 103%.
With CS(=O)(=O)N[C@@H]1CN2C(=O)N(c3noc4cccc(-c5ncc(F)cc5F)c34)CC[C@@H]2C1(F)F [Example 320, N-{(4aR,6R)-2-[4-(3,5-difluoropyridin-2-yl)-1,2-benzoxazol-3-yl]-5,5-difluoro-1-oxooctahydropyrrolo[1,2-c]pyrimidin-6-yl}methanesulfonamide] the “OX2R agonist activity (3 uM, %)” value was 104%.
With CCS(=O)(=O)N[C@@H]1CN2C(=O)N(c3noc4cccc(-c5ncc(F)cc5F)c34)CC[C@@H]2C1(F)F [Example 321, N-{(4aR,6R)-2-[4-(3,5-difluoropyridin-2-yl)-1,2-benzoxazol-3-yl]-5,5-difluoro-1-oxooctahydropyrrolo[1,2-c]pyrimidin-6-yl}ethanesulfonamide] the “OX2R agonist activity (3 uM, %)” value was 108%.
With CCS(=O)(=O)N[C@@H]1CN2C(=O)N(c3noc4cccc(-c5ccccc5OC)c34)CC[C@@H]2C1(F)F [Example 322, N-{(4aR,6R)-5,5-difluoro-2-[4-(2-methoxyphenyl)-1,2-benzoxazol-3-yl]-1-oxooctahydropyrrolo[1,2-c]pyrimidin-6-yl}ethanesulfonamide] the “OX2R agonist activity (3 uM, %)” value was 99%.
CCS(=O)(=O)N[C@@H]1CN2C(=O)N(c3noc4cccc(-c5ccc(F)cc5C)c34)CC[C@@H]2C1(F)F [Example 323, N-{(4aR,6R)-5,5-difluoro-2-[4-(4-fluoro-2-methylphenyl)-1,2-benzoxazol-3-yl]-1-oxooctahydropyrrolo[1,2-c]pyrimidin-6-yl}ethanesulfonamide] was tested, and the “OX2R agonist activity (3 uM, %)” value was 97%.
In the case of CCS(=O)(=O)N[C@@H]1CN2C(=O)N(c3noc4cccc(-c5ccco5)c34)CC[C@@H]2C1(F)F [Example 324, N-{(4aR,6R)-5,5-difluoro-2-[4-(furan-2-yl)-1,2-benzoxazol-3-yl]-1-oxooctahydropyrrolo[1,2-c]pyrimidin-6-yl}ethanesulfonamide], the “OX2R agonist activity (3 uM, %)” value is reported as 97%.
With CCS(=O)(=O)N[C@@H]1CN2C(=O)N(c3noc4cccc(-c5ccccc5C)c34)CC[C@@H]2C1(F)F [Example 325, N-{(4aR,6R)-5,5-difluoro-2-[4-(2-methylphenyl)-1,2-benzoxazol-3-yl]-1-oxooctahydropyrrolo[1,2-c]pyrimidin-6-yl}ethanesulfonamide] the “OX2R agonist activity (3 uM, %)” value was 101%.
CCS(=O)(=O)N[C@@H]1CN2C(=O)N(c3noc4cccc(-c5ccsc5)c34)CC[C@@H]2C1(F)F [Example 326, N-{(4aR,6R)-5,5-difluoro-1-oxo-2-[4-(thiophen-3-yl)-1,2-benzoxazol-3-yl]octahydropyrrolo[1,2-c]pyrimidin-6-yl}ethanesulfonamide] was tested, and the “OX2R agonist activity (3 uM, %)” value was 99%.
In the case of CCS(=O)(=O)N[C@@H]1CN2C(=O)N(c3noc4cccc(-c5ccccc5Cl)c34)CC[C@@H]2C1(F)F [Example 327, N-{(4aR,6R)-2-[4-(2-chlorophenyl)-1,2-benzoxazol-3-yl]-5,5-difluoro-1-oxooctahydropyrrolo[1,2-c]pyrimidin-6-yl}ethanesulfonamide], the “OX2R agonist activity (3 uM, %)” value is reported as 118%.
With CCS(=O)(=O)N[C@@H]1CN2C(=O)N(c3noc4cccc(-c5cccs5)c34)CC[C@@H]2C1(F)F [Example 328, N-{(4aR,6R)-5,5-difluoro-1-oxo-2-[4-(thiophen-2-yl)-1,2-benzoxazol-3-yl]octahydropyrrolo[1,2-c]pyrimidin-6-yl}ethanesulfonamide] the “OX2R agonist activity (3 uM, %)” value was 103%.
With CCS(=O)(=O)N[C@@H]1CN2C(=O)N(c3noc4cccc(-c5ccc(F)cc5Cl)c34)CC[C@@H]2C1(F)F [Example 329, N-{(4aR,6R)-2-[4-(2-chloro-4-fluorophenyl)-1,2-benzoxazol-3-yl]-5,5-difluoro-1-oxooctahydropyrrolo[1,2-c]pyrimidin-6-yl}ethanesulfonamide] the “OX2R agonist activity (3 uM, %)” value was 101%.
In the case of CCS(=O)(=O)N[C@@H]1CN2C(=O)N(c3noc4cccc(-c5nccs5)c34)CC[C@@H]2C1(F)F [Example 330, N-{(4aR,6R)-5,5-difluoro-1-oxo-2-[4-(1,3-thiazol-2-yl)-1,2-benzoxazol-3-yl]octahydropyrrolo[1,2-c]pyrimidin-6-yl}ethanesulfonamide], the “OX2R agonist activity (3 uM, %)” value is reported as 109%.
For CCS(=O)(=O)N[C@@H]1CN2C(=O)N(c3noc4cccc(C5CCC5)c34)CC[C@@H]2C1(F)F [Example 331, N-[(4aR,6R)-2-(4-cyclobutyl-1,2-benzoxazol-3-yl)-5,5-difluoro-1-oxooctahydropyrrolo[1,2-c]pyrimidin-6-yl]ethanesulfonamide], the “OX2R agonist activity (3 uM, %)” value was 45%.
In the case of CCS(=O)(=O)N[C@@H]1CN2C(=O)N(c3noc4cccc(-c5sccc5C)c34)CC[C@@H]2C1(F)F [Example 332, N-{(4aR,6R)-5,5-difluoro-2-[4-(3-methylthiophen-2-yl)-1,2-benzoxazol-3-yl]-1-oxooctahydropyrrolo[1,2-c]pyrimidin-6-yl}ethanesulfonamide], the “OX2R agonist activity (3 uM, %)” value is reported as 106%.
CCS(=O)(=O)N[C@@H]1CN2C(=O)N(c3noc4cccc(N5CCCCC5)c34)CC[C@@H]2C1(F)F [Example 333, N-{(4aR,6R)-5,5-difluoro-1-oxo-2-[4-(piperidin-1-yl)-1,2-benzoxazol-3-yl]octahydropyrrolo[1,2-c]pyrimidin-6-yl}ethanesulfonamide] was tested, and the “OX2R agonist activity (3 uM, %)” value was 68%.
With CCS(=O)(=O)N[C@@H]1CN2C(=O)N(c3noc4cccc(-c5ccccc5F)c34)CC[C@@H]2C1(F)F [Example 334, N-{(4aR,6R)-5,5-difluoro-2-[4-(2-fluorophenyl)-1,2-benzoxazol-3-yl]-1-oxooctahydropyrrolo[1,2-c]pyrimidin-6-yl}ethanesulfonamide] the “OX2R agonist activity (3 uM, %)” value was 111%.
CCS(=O)(=O)N[C@@H]1CN2C(=O)N(c3noc4cccc(-c5ncc(F)cc5C)c34)CC[C@@H]2C1(F)F [Example 335, N-{(4aR,6R)-5,5-difluoro-2-[4-(5-fluoro-3-methylpyridin-2-yl)-1,2-benzoxazol-3-yl]-1-oxooctahydropyrrolo[1,2-c]pyrimidin-6-yl}ethanesulfonamide] was tested, and the “OX2R agonist activity (3 uM, %)” value was 101%.

Each compound was assayed on cynomolgus monkeys (assay: Evaluation of wake-promoting effects in cynomolgus monkeys (EEG, EMG, locomotor activity)). Conditions: Macaca fascicularis, po; 1 mg/kg, p.o., at zeitgeber time 12; 4 hours after administration; male cynomolgus monkeys; read-out: Wakefulness time (% of vehicle treatment) (Mean, n = 2-4).
Format: in vivo, cynomolgus monkey
Method: The wake-promoting effects were evaluated by measuring the electroencephalogram (EEG), electromyogram (EMG) and locomotor activity in cynomolgus monkeys. Under isoflurane anesthesia (0.5-5%, Pfizer Japan Inc., Tokyo, Japan), male cynomolgus monkeys (2-3 years old, Hamri Co., Ltd., Ibaraki, Japan) were surgically implanted with radio-telemetry transmitters (L03-F3, Data Sciences International Inc., MN, USA). The two EEG electrodes were stereotaxically positioned at the parietal area and secured to the cranium with stainless-steel screws in contact with the dura. Bilateral EMG electrodes were implanted into the back cervical muscles. After at least a 1-month recovery period in home cages, the monkeys were habituated to the recording chamber (an acrylic cage 60W×55D×75H (cm)) located in a soundproof and electrically shielded room by the time animals sleep sufficiently in the experimental room. Cortical EEG, EMG and locomotor activity were recorded using the telemetry system (PhysioTel Digital telemetry platform, Data Sciences International Inc.). The signals were semi-automatically scored in 20-second epochs by a sleep scoring system (SleepSign, Kissei Comtec Co., Ltd., Nagano, Japan).
Test compound (1 or 3 mg/kg) suspended in 0.5% methylcellulose aqueous solution or vehicle (i.e., 0.5% methylcellulose aqueous solution) was administered orally (p.o.) to monkeys at zeitgeber time 12 in a volume of 5 mL/kg body weight with a pretest-posttest design (n=2-4), and then EEG, EMG and locomotor activity were recorded for 4 hours after administration. The time spent in wakefulness for 4 hours after administration (% of vehicle treatment) was calculated by using SleepSign.
CS(=O)(=O)N[C@@H]1Cn2c(cn(-c3noc4cccc(-c5c(F)cc(F)cc5F)c34)c2=O)C1(F)F [Example 16, N-{(6R)-7,7-Difluoro-3-oxo-2-[4-(2,4,6-trifluorophenyl)-1,2-benzoxazol-3-yl]-2,5,6,7-tetrahydro-3H-pyrrolo[1,2-c]imidazol-6-yl}methanesulfonamide] was tested, and the response vs control in vivo at 1 mg/kg was 546%.
CCS(=O)(=O)N[C@@H]1CN2C(=O)N(c3noc4cccc(-c5c(F)cc(F)cc5F)c34)C[C@@H]2C1(F)F [Example 24, N-{(6R,7aR)-7,7-Difluoro-3-oxo-2-[4-(2,4,6-trifluorophenyl)-1,2-benzoxazol-3-yl]hexahydro-1H-pyrrolo[1,2-c]imidazol-6-yl}ethanesulfonamide] gave a response vs control in vivo at 1 mg/kg of 393%.
CCS(=O)(=O)N[C@H]1C[C@H]2CN(c3noc4cc(Cl)cc(-c5c(F)cccc5F)c34)C(=O)N2C1 [Example 50, N-{(6S,7aS)-2-[6-Chloro-4-(2,6-difluorophenyl)-1,2-benzoxazol-3-yl]-3-oxohexahydro-1H-pyrrolo[1,2-c]imidazol-6-yl}ethanesulfonamide] gave a response vs control in vivo at 1 mg/kg of 176%.

Same assay, conditions: Macaca fascicularis, po; 3 mg/kg, p.o., at zeitgeber time 12; 4 hours after administration; male cynomolgus monkeys; read-out: Wakefulness time (% of vehicle treatment) (Mean, n = 2-4)
CCS(=O)(=O)N[C@H]1C[C@H]2CN(c3noc4cccc(-c5c(F)cccc5F)c34)C(=O)N2C1 [Example 1, N-{(6S,7aS)-2-[4-(2,6-Difluorophenyl)-1,2-benzoxazol-3-yl]-3-oxohexahydro-1H-pyrrolo[1,2-c]imidazol-6-yl}ethanesulfonamide] was tested, and the response vs control in vivo at 3 mg/kg was 383%.
